In US20100331315A1, “RHODANINES AND RELATED HETEROCYCLES AS KINASE INHIBITORS” (priority 2009, published 2010):
pIC50: −log10 of the molar value. Like-named read-outs stand apart in the source and are kept apart here.

Legend:
[1] = tested on: SUM-149PT; assay: Alamar Blue cell proliferation assay, SUM-149PT; assay type: cell-based; conditions: Homo sapiens, SUM149PT
Protocol: (§1) A representative cell-proliferation assay protocol using Alamar Blue dye (stored at 4° C., use 20 ul per well) is described hereafter.
(§2) a. Split and trypsinize cells.
(§3) b. Count cells using hemocytometer.
(§4) c. Plate 4,000-5,000 cells per well in 100 μl of medium and seed into a 96-well plate according to the following plate layout. Add cell culture medium only to wells B10 to B12. Wells B1 to B9 have cells but no compound added.
(§5) d. Add 100 μl of 2× drug dilution to each well in a concentration shown in the plate layout above. At the same time, add 100 μl of media into the control wells (wells B10 to B12). Total volume is 200 μl/well.
(§6) e. Incubate four (4) days at 37° C., 5% CO2 in a humidified incubator.
(§7) f. Add 20 μl Alamar Blue reagent to each well.
(§8) g. Incubate for four (4) hours at 37° C., 5% CO2 in a humidified incubator.
(§9) h. Record fluorescence at an excitation wavelength of 544 nm and emission wavelength of 590 nm using a microplate reader.
(§10) In the assays, cells are cultured with a test compound for approximately four days, the dye is then added to the cells and fluorescence of […] dye is detected after approximately four hours. Different types of cells can be utilized in the assays (e.g., HCT-116 human colorectal carcinoma cells, PC-3 human prostatic cancer cells and MiaPaca human pancreatic carcinoma cells).

[2] = target: recombinant human PIM2 (Homo sapiens, UniProt Q9P1W9); assay: PIM-2 assay (33P-ATP filter plate); assay type: biochemical
Protocol: PIM-2 Assay Method: Test compounds dissolved and diluted in DMSO (2 μl) were added to a reaction mixture comprising 10 μl of 5× Reaction Buffer (40 mM MOPS pH 7.0, 5 mM EDTA), 10 μl of recombinant human PIM2 solution (4 ng PIM-2 dissolved in dilution buffer (20 mM MOPS pH 7.0; EDTA 1 mM; 5% Glycerol; 0.01% Brij 35; […]; […] 2-mercaptoethanol; 1 mg/ml BSA)) and 8 ul of water. Reactions were initiated by the addition of 10 ul of ATP Solution (49% (15 mM MgCl2; 75 uM ATP) 1% ([γ-^33P]ATP: Stock 1 mCi/1000; 3000Ci/mmol (Perkin Elmer)) and 10 ul of substrate peptide solution (RSRSSYPAGT, dissolved in water at a concentration of 1 mM), Reactions were maintained for 10 min at 30° C. The reactions were quenched with 100 ul of 0.75% Phosphoric acid, then transferred to and filtered through a Phosphocellulose filter plate (Millipore, MSPH-N6B-50). After washing each well 4 times with 0.75% Phosphoric acid, scintillation fluid (20 uL) was added to each well and the residual radioactivity was measured using a Wallac luminescence counter.

[3] = tested on: MDAMB453; assay: Alamar Blue cell proliferation assay, MDAMB453; assay type: cell-based; conditions: Homo sapiens
Protocol: as §1, §2, §3, §4, §5, §6, §7, §8, §9, §10

[4] = target: T1, recombinant human CK2 (Homo sapiens, UniProt P68400); assay: CK2 assay (cell-free, 33P-ATP filter plate); assay type: biochemical
T1 construct: purchased Upstate
Protocol: Modulatory activity of compounds described herein was assessed in vitro in cell-free CK2 assays by the following method.
Test compounds in aqueous solution were added at a volume of 10 microliters, to a reaction mixture comprising 10 microliters Assay Dilution Buffer (ADB; 20 mM MOPS, pH 7.2, 25 mM beta-glycerolphosphate, 5 mM EGTA, 1 mM sodium orthovanadate and 1 mM dithiothreitol), 10 microliters of substrate peptide (RRRDDDSDDD, dissolved in ADB at a concentration of 1 mM), 10 microliters of recombinant human CK2 (25 ng dissolved in ADB; Upstate). Reactions were initiated by the addition of 10 microliters of ATP Solution (90% 75 mM MgCl2, 75 micromolar ATP dissolved in ADB; 10% [γ-^33P]ATP (stock 1 mCi/100 μl; 3000 Ci/mmol (Perkin Elmer) and maintained for 10 minutes at 30 degrees C. The reactions were quenched with 100 microliters of 0.75% phosphoric acid, then transferred to and filtered through a phosphocellulose filter plate (Millipore). After washing each well 5 times with 0.75% phosphoric acid, the plate was dried under vacuum for 5 min and, following the addition of 15 ul of scintillation fluid to each well, the residual radioactivity was measured using a Wallac luminescence counter.

[5] = tested on: MV-4-11; assay: Alamar Blue cell proliferation assay, MV-4-11; assay type: cell-based; conditions: Homo sapiens
Protocol: as §1, §2, §3, §4, §5, §6, §7, §8, §9, §10

[6] = tested on: K-562; assay: Alamar Blue cell proliferation assay, K-562; assay type: cell-based; conditions: Homo sapiens
Protocol: as §1, §2, §3, §4, §5, §6, §7, §8, §9, §10

[7] = tested on: BxPC3; assay: Alamar Blue cell proliferation assay, BxPC3; assay type: cell-based; conditions: Homo sapiens
Protocol: as §1, §2, §3, §4, §5, §6, §7, §8, §9, §10

[8] = target: recombinant PIM-1 (Homo sapiens, UniProt P11309); assay: PIM-1 assay (33P-ATP filter plate); assay type: biochemical; conditions: read-out: PIM1: IC50
Protocol: The following procedure was used to assay the PIM-1 kinase activity of compounds of the invention. Other methods for assaying PIM-1 and other PIM kinases, as well as methods to assay for activity against the various kinases are known in the art.
In a final reaction volume of 50 ul, recombinant PIM-1 (1 ng) was incubated with 12 mM MOPS pH 7.0, 0.4 mM EDTA, glycerol 1%, brij 35 0.002%, 2-mercaptoethanol 0.02%, BSA 0.2 mg/ml, 100 uM KKRNRTLTK, 10 mM MgAcetate, 15 uM ATP, [γ-^33P-ATP] (specific activity approx. 500 cpm/pmol), DMSO 4% and test inhibitor compound at the required concentration. The reaction was initiated by the addition of the Magnesium ATP mixture. After 40 min incubation at 23° C., the reactions were quenched by the addition of 100 ul 0.75% Phosphoric acid, and the labeled peptide collected by filtration through a phosphocellulose filter plate. The plate was washed 4 times with 0.075% phosphoric acid (100 ul per well) and then, after the addition of scintillation fluid (20 ul per well), the counts were measured by a scintillation counter.

[9] = tested on: MiaPaca human pancreatic carcinoma cells; assay: Alamar Blue cell proliferation assay, MiaPaCa; assay type: cell-based; conditions: MIA PaCa-2, Table 1, read-out: AB: MiaPaCa IC50
Protocol: as §1, §2, §3, §4, §5, §6, §7, §8, §9, §10

[10] = tested on: MDAMB231; assay: Alamar Blue cell proliferation assay, MDAMB231; assay type: cell-based; conditions: Homo sapiens, MDA-MB-231, MDAMB231, Table 1, read-out: AB: MDAMB231 IC50
Protocol: as §1, §2, §3, §4, §5, §6, §7, §8, §9, §10

[11] = tested on: PC-3 human prostatic cancer cells; assay: Alamar Blue cell proliferation assay, PC3; assay type: cell-based; conditions: PC-3, PC3, Table 1, read-out: AB: PC3
Protocol: as §1, §2, §3, §4, §5, §6, §7, §8, §9, §10

[12] = Table 5, read-out: AB: SUM-149PT IC50
[13] = MDA-MB-453, MDAMB453, Table 5, read-out: AB: MDAMB453 IC50
[14] = MV4-11, MV-4-11, Table 5, read-out: AB: MV-4-11 IC50
[15] = K562, K-562, Table 5, read-out: AB: K-562 IC50
[16] = BXPC-3, BxPC3, Table 5, read-out: AB: BxPC3 IC50

T1 sequence (P68400 whole entry): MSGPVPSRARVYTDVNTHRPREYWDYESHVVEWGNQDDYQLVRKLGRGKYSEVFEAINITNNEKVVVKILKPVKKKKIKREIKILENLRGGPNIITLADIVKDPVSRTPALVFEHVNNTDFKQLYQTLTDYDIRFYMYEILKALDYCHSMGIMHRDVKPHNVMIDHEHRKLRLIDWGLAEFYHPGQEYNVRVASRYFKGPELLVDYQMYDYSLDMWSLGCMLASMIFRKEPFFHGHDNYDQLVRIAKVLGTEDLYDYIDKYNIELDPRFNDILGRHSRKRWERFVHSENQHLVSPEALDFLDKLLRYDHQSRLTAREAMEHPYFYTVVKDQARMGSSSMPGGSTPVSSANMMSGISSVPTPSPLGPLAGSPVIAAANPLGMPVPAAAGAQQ
T1 sequence (P67870 whole entry partner): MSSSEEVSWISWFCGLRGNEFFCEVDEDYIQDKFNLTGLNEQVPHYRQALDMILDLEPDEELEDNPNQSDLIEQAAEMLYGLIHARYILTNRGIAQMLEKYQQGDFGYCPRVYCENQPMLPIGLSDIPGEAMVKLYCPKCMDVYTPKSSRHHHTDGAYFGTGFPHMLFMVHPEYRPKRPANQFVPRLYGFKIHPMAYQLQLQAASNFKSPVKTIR
Chain of recombinant PIM-1 (P11309 whole entry): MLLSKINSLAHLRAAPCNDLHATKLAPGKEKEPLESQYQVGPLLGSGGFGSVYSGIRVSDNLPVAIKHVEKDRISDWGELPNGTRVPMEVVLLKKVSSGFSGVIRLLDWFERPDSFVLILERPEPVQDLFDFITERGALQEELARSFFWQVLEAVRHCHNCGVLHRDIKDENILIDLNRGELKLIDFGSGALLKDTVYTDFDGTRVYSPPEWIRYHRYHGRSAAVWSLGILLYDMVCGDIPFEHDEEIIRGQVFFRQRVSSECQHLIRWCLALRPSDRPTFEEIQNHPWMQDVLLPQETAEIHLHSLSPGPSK
Chain of recombinant human PIM2 (Q9P1W9 whole entry): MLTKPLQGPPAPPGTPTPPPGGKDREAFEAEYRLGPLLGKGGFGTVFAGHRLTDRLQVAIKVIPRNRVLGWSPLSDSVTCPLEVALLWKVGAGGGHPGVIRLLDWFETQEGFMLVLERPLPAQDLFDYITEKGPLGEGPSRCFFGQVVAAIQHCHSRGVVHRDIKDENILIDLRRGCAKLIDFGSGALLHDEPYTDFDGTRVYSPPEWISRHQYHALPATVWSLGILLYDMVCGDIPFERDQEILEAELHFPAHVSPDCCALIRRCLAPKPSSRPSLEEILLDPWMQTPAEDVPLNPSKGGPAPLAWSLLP

SMILES	pIC50 [1, 12]	pIC50 ([2]; Table 5)	pIC50 [3, 13]	pIC50 ([4]; Table 5)	pIC50 [5, 14]	pIC50 [6, 15]	pIC50 [7, 16]	other results
O=C1NC(=O)/C(=C\c2ccc(F)c(-c3cncc(N4CCCN(C(=O)c5ccccc5F)CC4)n3)c2)S1	5.58	> 7.30	5.57	> 7.30	5.51	5.80	4.70	
CN1CCCN(C(=O)c2cccc(-c3ccc(/C=C4\SC(=S)NC4=O)o3)c2)CC1								pIC50 ([2]; Table 1): 7.89; pIC50 ([4]; Table 1): 7.33; pIC50 ([5]; MV4-11, MV-4-11, Table 1, read-out: AB: MV-4-11 IC50): 6.39; pIC50 ([8]; Table 1): 8.30; pIC50 [9]: 5.64; pIC50 ([6]; K562, K-562, Table 1, read-out: AB: K-562 IC50): 5.54; pIC50 [10]: < 5.00; pIC50 [11]: < 4.52
O=C1NC(=O)/C(=C/c2cc(-c3cncc(N4CCCNCC4)n3)cs2)S1								pIC50 ([1]; Table 6, read-out: AB: SUM-149PT IC50): 4.60; inhibition at 2.5 µM ([2]; @ 2.5 uM, Table 6, read-out: PIM2: % inh @ 2.5 uM): 99.9%; pIC50 ([3]; MDA-MB-453, MDAMB453, Table 6, read-out: AB: MDAMB453 IC50): 4.56; pIC50 ([4]; Table 6): 8.36; pIC50 ([7]; BXPC-3, BxPC3, Table 6, read-out: AB: BxPC3 IC50): < 4.52
Cc1ccc(-c2cncc(N3CCCN(C)CC3)n2)cc1/C=C1\SC(=O)NC1=O	5.06	7.30	4.81	7.30	5.43	5.18	4.59	pIC50 ([8]; Table 5): > 7.30
O=C1NC(=O)/C(=C\c2ccc(F)c(-c3cncc(N4CCCNCC4)n3)c2)S1	5.63	> 7.30	5.91	> 7.30	5.99	5.54	5.36	pIC50 ([8]; Table 5): > 7.30
O=C1NC(=O)/C(=C\c2ccc(F)c(-c3cncc(N4CCCN(C(=O)C5CC5)CC4)n3)c2)S1	5.40	> 7.30	5.39	> 7.30	5.56	6.49	4.64	
CC(C)NC(=O)N1CCCN(c2cncc(-c3cc(/C=C4/SC(=O)NC4=O)ccc3F)n2)CC1	5.81	> 7.30	5.20	> 7.30	5.11			
O=C1NC(=O)/C(=C\c2ccc(F)c(-c3cncc(N4CCCN(C(=O)Oc5ccccc5)CC4)n3)c2)S1	5.17	> 7.30	5.42	> 7.30	5.20	5.03	4.62	
O=C1NC(=O)/C(=C\c2ccc(F)c(-c3cncc(N4CCCN(C(=O)OCc5ccccc5)CC4)n3)c2)S1	5.08	> 7.30	5.40	> 7.30	5.46	5.59	4.60	
CCOC(=O)N1CCCN(c2cncc(-c3cc(/C=C4/SC(=O)NC4=O)ccc3F)n2)CC1	5.38	> 7.30	4.96	> 7.30	5.41	5.45	4.64	
